Source: patent US20250230193A1, “CYCLIC COMPOUND HAVING SELECTIVE KRAS INHIBITORY EFFECT ON HRAS AND NRAS” (CHUGAI SEIYAKU KABUSHIKI KAISHA, priority 2022, published 2025)

How the values were obtained:
[1] = biological target: GDP-bound HRAS wild-type protein (Homo sapiens, UniProt P01112); assay: Binding to HRAS by surface plasmon resonance (SPR), Single Cycle Kinetics; settings: KD ratio, GDP-bound HRAS wild-type vs GDP-bound KRAS wild-type, SPR
[2] = biological target: GDP-bound NRAS wild-type protein (Homo sapiens, UniProt P01111); assay: Binding to NRAS by surface plasmon resonance (SPR), Single Cycle Kinetics; settings: KD ratio, GDP-bound NRAS wild-type vs GDP-bound KRAS wild-type, SPR
Sequence of GDP-bound NRAS wild-type protein (P01111 whole entry): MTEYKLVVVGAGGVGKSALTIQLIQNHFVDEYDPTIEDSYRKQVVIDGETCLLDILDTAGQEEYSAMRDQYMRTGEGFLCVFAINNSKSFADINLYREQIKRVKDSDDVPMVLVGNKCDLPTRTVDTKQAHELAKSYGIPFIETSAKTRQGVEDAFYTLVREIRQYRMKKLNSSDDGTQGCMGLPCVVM

Sequence of GDP-bound HRAS wild-type protein (P01112 whole entry): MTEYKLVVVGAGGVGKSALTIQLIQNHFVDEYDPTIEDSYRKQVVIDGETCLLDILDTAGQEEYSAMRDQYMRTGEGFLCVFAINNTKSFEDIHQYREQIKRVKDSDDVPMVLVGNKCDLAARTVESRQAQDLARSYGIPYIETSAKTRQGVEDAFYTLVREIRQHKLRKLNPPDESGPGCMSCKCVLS

## CCC[C@H]1C(=O)N[C@@H]([C@@H](C)CC)C(=O)N(C)CC(=O)N(C)[C@H]2C/C=C\CCN(C2=O)[C@@H](Cc2ccc(C(F)(F)F)cc2)C(=O)N(C)CC(=O)N[C@@H](CCc2cc(F)c(C(F)(F)F)c(F)c2)C(=O)N2C[C@@H](C)C[C@H]2C(=O)NC2(CC(C)(C)C2)C(=O)N(C)[C@@H](C2CCCC2)C(=O)N(C)[C@H](C(=O)N(C)C)CC(=O)N1C [PP1683]
[1]
  HRAS/KRAS (ratio of KD value for HRAS to KD value for KRAS): A (a compound having 10 or more and less than 20 is denoted as A)
[2]
  NRAS/KRAS (ratio of KD value for NRAS to KD value for KRAS): A (a compound having 10 or more and less than 20 is denoted as A)

## CC[C@H](C)[C@@H]1NC(=O)[C@H](CC2CCC2)N(C)C(=O)C[C@@H](C(=O)N(C)C)N(C)C(=O)[C@H](C2CCCC2)N(C)C(=O)C2(CC(C)(C)C2)NC(=O)[C@@H]2C[C@H](C)CN2C(=O)[C@H](CCc2cc(F)c(C(F)(F)F)c(F)c2)NC(=O)CN(C)C(=O)[C@H](Cc2ccc(C(F)(F)F)cc2)N2CC/C=C\C[C@@H](C2=O)N(C)C(=O)CN(C)C1=O [PP1684]
[1]
  HRAS/KRAS (ratio of KD value for HRAS to KD value for KRAS): A (a compound having 10 or more and less than 20 is denoted as A)
[2]
  NRAS/KRAS (ratio of KD value for NRAS to KD value for KRAS): A (a compound having 10 or more and less than 20 is denoted as A)

## CCCN(C)C(=O)[C@@H]1CC(=O)N(C)[C@@H](CC(F)F)C(=O)N[C@@H]([C@@H](C)CC)C(=O)N(C)CC(=O)N(C)[C@H]2C/C=C\CCN(C2=O)[C@@H](Cc2ccc(C(F)(F)F)cc2)C(=O)N(C)CC(=O)N[C@@H](CCc2cc(F)c(C(F)(F)F)c(F)c2)C(=O)N2C[C@H](F)C[C@H]2C(=O)NC2(CC(C)(C)C2)C(=O)N(C)[C@@H](C2CCCC2)C(=O)N1C [PP1687]
[1]
  HRAS/KRAS (ratio of KD value for HRAS to KD value for KRAS): A (a compound having 10 or more and less than 20 is denoted as A)
[2]
  NRAS/KRAS (ratio of KD value for NRAS to KD value for KRAS): A (a compound having 10 or more and less than 20 is denoted as A)

## CC[C@H](C)[C@@H]1NC(=O)[C@H](CC(F)(F)F)N(C)C(=O)C[C@@H](C(=O)N(C)C)N(C)C(=O)[C@H](C2CCCC2)N(C)C(=O)C2(CC(C)(C)C2)NC(=O)[C@@H]2C[C@@H](F)CN2C(=O)[C@H](CCc2cc(F)c(C(F)(F)F)c(F)c2)NC(=O)CN(C)C(=O)[C@H](Cc2ccc(C(F)(F)F)cc2)N2CC/C=C\C[C@@H](C2=O)N(C)C(=O)CN(C)C1=O [PP1688]
[1]
  HRAS/KRAS (ratio of KD value for HRAS to KD value for KRAS): A (a compound having 10 or more and less than 20 is denoted as A)
[2]
  NRAS/KRAS (ratio of KD value for NRAS to KD value for KRAS): A (a compound having 10 or more and less than 20 is denoted as A)

## CCC[C@H]1C(=O)N[C@@H]([C@@H](C)CC)C(=O)N(C)CC(=O)N(C)[C@H]2C/C=C\CCN(C2=O)[C@@H](Cc2ccc(C(F)(F)F)cc2)C(=O)N(C)CC(=O)N[C@@H](CCc2cc(F)c(C(F)(F)F)c(F)c2)C(=O)N2C[C@H](F)C[C@H]2C(=O)NC2(CC(C)(C)C2)C(=O)N(C)[C@@H](C2CCCC2)C(=O)N(C)[C@H](C(=O)N(C)C)CC(=O)N1C [PP1689]
[1]
  HRAS/KRAS (ratio of KD value for HRAS to KD value for KRAS): B (a compound having 3 or more and less than 10 is denoted as B)
[2]
  NRAS/KRAS (ratio of KD value for NRAS to KD value for KRAS): A (a compound having 10 or more and less than 20 is denoted as A)

## C#CC[C@H]1C(=O)N[C@@H]([C@@H](C)CC)C(=O)N(C)CC(=O)N(C)[C@H]2C/C=C\CCN(C2=O)[C@@H](Cc2ccc(C(F)(F)F)cc2)C(=O)N(C)CC(=O)N[C@@H](CCc2cc(F)c(C(F)(F)F)c(F)c2)C(=O)N2C[C@H](F)C[C@H]2C(=O)NC2(CC(C)(C)C2)C(=O)N(C)[C@@H](C2CCCC2)C(=O)N(C)[C@H](C(=O)N(C)CC)CC(=O)N1C [PP1691]
[1]
  HRAS/KRAS (ratio of KD value for HRAS to KD value for KRAS): A (a compound having 10 or more and less than 20 is denoted as A)
[2]
  NRAS/KRAS (ratio of KD value for NRAS to KD value for KRAS): A (a compound having 10 or more and less than 20 is denoted as A)

## C#CC[C@H]1C(=O)N[C@@H]([C@@H](C)CC)C(=O)N(C)CC(=O)N(C)[C@H]2C/C=C\CCN(C2=O)[C@@H](Cc2ccc(C(F)(F)F)cc2)C(=O)N(C)CC(=O)N[C@@H](CCc2cc(F)c(C(F)(F)F)c(F)c2)C(=O)N2C[C@H](F)C[C@H]2C(=O)NC2(CC(C)(C)C2)C(=O)N(C)[C@@H](C2CCCC2)C(=O)N(C)[C@H](C(=O)N(C)CCC)CC(=O)N1C [PP1692]
[1]
  HRAS/KRAS (ratio of KD value for HRAS to KD value for KRAS): A (a compound having 10 or more and less than 20 is denoted as A)
[2]
  NRAS/KRAS (ratio of KD value for NRAS to KD value for KRAS): AA (a compound having 20 or more is denoted as AA)

## CCCC[C@H]1C(=O)N[C@@H]([C@@H](C)CC)C(=O)N(C)CC(=O)N(C)[C@H]2C/C=C\CCN(C2=O)[C@@H](Cc2ccc(C(F)(F)F)cc2)C(=O)N(C)CC(=O)N[C@@H](CCc2cc(F)c(C(F)(F)F)c(F)c2)C(=O)N2C[C@H](F)C[C@H]2C(=O)NC2(CC(C)(C)C2)C(=O)N(C)[C@@H](C2CCCC2)C(=O)N(C)[C@H](C(=O)N(C)C)CC(=O)N1C [PP1693]
[1]
  HRAS/KRAS (ratio of KD value for HRAS to KD value for KRAS): A (a compound having 10 or more and less than 20 is denoted as A)
[2]
  NRAS/KRAS (ratio of KD value for NRAS to KD value for KRAS): AA (a compound having 20 or more is denoted as AA)

## CC[C@H](C)[C@@H]1NC(=O)[C@H](CC(C)C)N(C)C(=O)C[C@@H](C(=O)N(C)CC)N(C)C(=O)[C@H](C2CCCC2)N(C)C(=O)C2(CC(C)(C)C2)NC(=O)[C@@H]2C[C@@H](F)CN2C(=O)[C@H](CCc2cc(F)c(C(F)(F)F)c(F)c2)NC(=O)CN(C)C(=O)[C@H](Cc2ccc(C(F)(F)F)cc2)N2CC/C=C\C[C@@H](C2=O)N(C)C(=O)CN(C)C1=O [PP1694]
[1]
  HRAS/KRAS (ratio of KD value for HRAS to KD value for KRAS): A (a compound having 10 or more and less than 20 is denoted as A)
[2]
  NRAS/KRAS (ratio of KD value for NRAS to KD value for KRAS): A (a compound having 10 or more and less than 20 is denoted as A)

## CCCN(C)C(=O)[C@@H]1CC(=O)N(C)[C@@H](COC)C(=O)N[C@@H]([C@@H](C)CC)C(=O)N(C)CC(=O)N(C)[C@H]2C/C=C\CCN(C2=O)[C@@H](Cc2ccc(C(F)(F)F)cc2)C(=O)N(C)CC(=O)N[C@@H](CCc2cc(F)c(C(F)(F)F)c(F)c2)C(=O)N2C[C@H](F)C[C@H]2C(=O)NC2(CC(C)(C)C2)C(=O)N(C)[C@@H](C2CCCC2)C(=O)N1C [PP1696]
[1]
  HRAS/KRAS (ratio of KD value for HRAS to KD value for KRAS): A (a compound having 10 or more and less than 20 is denoted as A)
[2]
  NRAS/KRAS (ratio of KD value for NRAS to KD value for KRAS): AA (a compound having 20 or more is denoted as AA)

## CCCOC[C@H]1C(=O)N[C@@H]([C@@H](C)CC)C(=O)N(C)CC(=O)N(C)[C@H]2C/C=C\CCN(C2=O)[C@@H](Cc2ccc(C(F)(F)F)cc2)C(=O)N(C)CC(=O)N[C@@H](CCc2cc(F)c(C(F)(F)F)c(F)c2)C(=O)N2C[C@H](F)C[C@H]2C(=O)NC2(CC(C)(C)C2)C(=O)N(C)[C@@H](C2CCCC2)C(=O)N(C)[C@H](C(=O)N(C)CC)CC(=O)N1C [PP1697]
[1]
  HRAS/KRAS (ratio of KD value for HRAS to KD value for KRAS): A (a compound having 10 or more and less than 20 is denoted as A)
[2]
  NRAS/KRAS (ratio of KD value for NRAS to KD value for KRAS): A (a compound having 10 or more and less than 20 is denoted as A)
